From PubChem BioAssay (NCI) come the findings set out here.

Among the test systems are CAKI-1 renal; COLO 205 colon; HS 578T breast; IGROV1 ovarian; OVCAR-8 ovarian; RPMI-8226 leukemia; SF-268 CNS; SK-OV-3 ovarian; TK-10 renal; NCI/ADR-RES ovarian.
Common to all, as to assay: NCI tumour cell line growth inhibition, 48 h

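Growth conditions: 96-well plates. Treatment: test compound, 48 hours, 5 concentrations. Analysis: linear interpolation between bracketing concentrations; unreached endpoints set to highest concentration. At the GI50, growth is halved. Definition used: TGI = concentration required for complete inhibition of growth.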

As to `O=C(Nc1ccc(Oc2cccc(F)c2)c(Cl)c1)c1cnccn1`, the GI50 in the assay on CAKI-1 renal was 2.13 µM; in the assay with COLO 205 colon it was 0.789 µM; in the assay with HS 578T breast it was 1.19 µM; with IGROV1 ovarian, 1.83 µM; in the assay with OVCAR-8 ovarian, 2.51 µM; with RPMI-8226 leukemia it was 1.79 µM. Also, the GI50 in the assay with SF-268 CNS is 7.81 µM; in the assay with SK-OV-3 ovarian it was 10.8 µM; in the assay with TK-10 renal, 3.75 µM. Besides, the TGI in the assay on CAKI-1 renal, in the assay on COLO 205 colon, in the assay on HS 578T breast, in the assay on IGROV1 ovarian, in the assay on OVCAR-8 ovarian and with RPMI-8226 leukemia was > 50 µM each time. For the same compound, the TGI in the assay on SF-268 CNS, in the assay on SK-OV-3 ovarian and with TK-10 renal was > 50 µM throughout.
`CCc1ccc2c(c1)C(=O)c1c-2n(CCCN=[N+]=[N-])c(=O)c2cc(OC)c(OC)cc12`: the GI50 in the assay on COLO 205 colon is > 100 µM; in the assay with HS 578T breast it was 89.1 µM; in the assay on IGROV1 ovarian, 53.4 µM; in the assay with NCI/ADR-RES ovarian, > 100 µM; in the assay with OVCAR-8 ovarian, > 100 µM; with RPMI-8226 leukemia, > 100 µM. Also, the GI50 with SF-268 CNS is 60.7 µM; in the assay with SK-OV-3 ovarian, > 100 µM; in the assay on TK-10 renal it was 44.2 µM. Moreover, the TGI in the assay with COLO 205 colon, with HS 578T breast, in the assay on IGROV1 ovarian, in the assay with NCI/ADR-RES ovarian, with OVCAR-8 ovarian and in the assay on RPMI-8226 leukemia was > 100 µM throughout. Further, the TGI in the assay with SF-268 CNS, in the assay with SK-OV-3 ovarian and with TK-10 renal was > 100 µM each time.
In the case of `COc1ccc(C(=O)/C=C/c2cccc(Nc3ccnc4cc(Cl)ccc34)c2)cc1`, the GI50 was 3.85 µM with COLO 205 colon; 3.18 µM with HS 578T breast; 1.44 µM in the assay on IGROV1 ovarian; 0.572 µM in the assay with RPMI-8226 leukemia; 2.22 µM in the assay on SK-OV-3 ovarian; 1.64 µM with TK-10 renal. Besides, the TGI is > 100 µM with COLO 205 colon; > 100 µM in the assay on HS 578T breast; 6.53 µM in the assay with IGROV1 ovarian; 13.8 µM in the assay with RPMI-8226 leukemia; 7.98 µM in the assay with SK-OV-3 ovarian; 4.59 µM in the assay with TK-10 renal.
Regarding `Oc1c(Cl)c(Cl)c(O)c2c1CCCC2`, the TGI is 3.74 µM in the assay on COLO 205 colon; 49.2 µM in the assay on HS 578T breast; 38 µM in the assay with NCI/ADR-RES ovarian; 46 µM with OVCAR-8 ovarian; 6.91 µM in the assay on RPMI-8226 leukemia; 24.8 µM in the assay on SF-268 CNS. Moreover, the TGI came to 27.2 µM with SK-OV-3 ovarian and 9.14 µM in the assay with TK-10 renal.
As to `NCCN.O=C([O-])CN1CCOCC1.[OH-].[Pt+4]`, the GI50 in the assay with CAKI-1 renal, in the assay on COLO 205 colon, with HS 578T breast, in the assay with IGROV1 ovarian, with NCI/ADR-RES ovarian and with OVCAR-8 ovarian was > 100 µM each time. The GI50 in the assay with SF-268 CNS, in the assay with SK-OV-3 ovarian and in the assay with TK-10 renal was > 100 µM each time. The TGI in the assay on CAKI-1 renal, in the assay with COLO 205 colon, with HS 578T breast, in the assay with IGROV1 ovarian, in the assay with NCI/ADR-RES ovarian and in the assay with OVCAR-8 ovarian was > 100 µM each time. Also, the TGI in the assay on SF-268 CNS, in the assay on SK-OV-3 ovarian and in the assay on TK-10 renal was > 100 µM each time.
Consider `Cc1ccc(-c2csc(NC(=O)N3CCN(c4cc5c(cc4F)c(=O)c(C(=O)O)cn5C4CC4)CC3)n2)cc1`, for which the GI50 was 1.92 µM in the assay with COLO 205 colon; 0.666 µM in the assay on HS 578T breast; 0.482 µM in the assay with IGROV1 ovarian; 4.65 µM in the assay on NCI/ADR-RES ovarian; 0.421 µM in the assay with OVCAR-8 ovarian; 0.378 µM in the assay on RPMI-8226 leukemia. Besides, the GI50 with SF-268 CNS was 0.371 µM; in the assay with SK-OV-3 ovarian, 1.35 µM. Moreover, the TGI in the assay on COLO 205 colon was 6 µM; in the assay with HS 578T breast, > 100 µM; in the assay on IGROV1 ovarian it was > 100 µM; in the assay with NCI/ADR-RES ovarian, > 100 µM; in the assay with OVCAR-8 ovarian, 7.74 µM; in the assay with RPMI-8226 leukemia, 1.9 µM. Moreover, the TGI in the assay on SF-268 CNS was > 100 µM; in the assay with SK-OV-3 ovarian, 6.12 µM.
For `Cc1nn(C)c(COc2ccc(N3CCN(S(=O)(=O)N(C)C)CC3)cc2)c1-c1cccc2c(CCCOc3cccc4ccccc34)c(C(=O)O)n(CCN3CCOCC3)c12`, the GI50 with CAKI-1 renal is 11.4 µM; in the assay on COLO 205 colon, 2.1 µM; in the assay on HS 578T breast it was 2.95 µM; in the assay on IGROV1 ovarian, 3.52 µM; with NCI/ADR-RES ovarian, 36.5 µM; with OVCAR-8 ovarian, 3.51 µM. Also, the GI50 with SF-268 CNS was 3.66 µM; in the assay on SK-OV-3 ovarian it was 2.64 µM; in the assay with TK-10 renal, 3.47 µM. Besides, the TGI is 23.9 µM in the assay on CAKI-1 renal; 4.81 µM in the assay on COLO 205 colon; 14.7 µM in the assay with HS 578T breast; 11.7 µM in the assay with IGROV1 ovarian; > 100 µM with NCI/ADR-RES ovarian; 14.7 µM in the assay with OVCAR-8 ovarian. Also, the values for the TGI in the assay with SF-268 CNS, with SK-OV-3 ovarian and with TK-10 renal were 15.8 µM, 10.3 µM and 15.5 µM, respectively.
